Source: publication PMC11295173 (Journal of the American Chemical Society, 2024)
Read-outs that look alike come from different tables or passages of the source. Ends that are not written are not given here.

Experiments:
Circular dichroism (CD) = assay type: physicochemical; conditions: bandwidth of 1 nm; buffer spectrum subtracted as blank
[1] = assay type: binding; parameters: unit not given here; conditions: CNTs (1–8 µg mL−1); peptide probe 2 × 10−6 M; PBS (0.01 M, pH 7.4), 2 min, excitation 520 nm; double reciprocal linear fitting
[2] = system: RBDs from the S-proteins of the five VOCs; assay: Differential sensing of RBDs with S1-S20 (fluorescence, PCA, loading plots); assay type: binding, SARS-CoV-2; conditions: PCA and loading plots
RBDs = assay type: binding, SARS-CoV-2; conditions: peptide-GO complexes; RBDs 0 to 12 μg mL-1; PBS (0.01 M, pH 7.40); excitation 520 nm
[3] = assay type: binding; parameters: unit not given here; conditions: GO (1–15 µg mL−1); peptide probe 2 × 10−6 M; PBS (0.01 M, pH 7.4), 2 min, excitation 520 nm; double reciprocal linear fitting
[4] = assay type: binding; parameters: unit not given here; conditions: AuNPs (1–20 µg mL−1); peptide probe 2 × 10−6 M; PBS (0.01 M, pH 7.4), 2 min, excitation 520 nm; double reciprocal linear fitting
[5] = assay type: binding; parameters: unit not given here; conditions: 2D MnO2 (1–12 µg mL−1); peptide probe 2 × 10−6 M; PBS (0.01 M, pH 7.4), 2 min, excitation 520 nm; double reciprocal linear fitting

Substance | secondary structure (CD spectra) (Circular dichroism (CD)) | binding constant (Ka) [1] | contribution of peptide probes for VOC classification (order, loading plots) [2] | sensitivity of the peptide probes for the RBDs (order, from detection limits) (RBDs) | binding constant (Ka) [3] | binding constant (Ka) [4] | binding constant (Ka) [5]
GI7: heptamer (residues 352–358) from the β3 and β4-sheet of hACE2 (GKGDFRI; UniProt Q9BYF1 352-358, looked up, fragment) | no typical signature of secondary structures |  |  |  |  |  | 
LL7: heptamer (residues 79–85) from α2-helix of hACE2 (LAQMYPL; UniProt Q9BYF1 79-85, looked up, fragment) | no typical signature of secondary structures |  |  |  |  |  | 
QQ19: continuous 19-mer (amino-acid residues 24–42) truncated from the α1-helix of hACE2 (QAKTFLDKFNHEAEDLFYQ; UniProt Q9BYF1 24-42, looked up, fragment) | two minima at 202 and 222 nm, characteristic of α-helices |  |  |  |  |  | 
TI7: fluorescently tagged (5-TAMRA) peptide probe, presumably of GI7 (GKGDFRI; also: 5-TAMRA label, site not given here; UniProt Q9BYF1 352-358, looked up, fragment) |  | 0.1462 | TI26 > TQ26 > TQ19 > TL7 > TI7 | TI26 > TQ26 > TQ19 > TL7 > TI7 | 0.0273 | 0.0153 | 0.1024
TL7: fluorescently tagged (5-TAMRA) peptide probe, presumably of LL7 (LAQMYPL; also: 5-TAMRA label, site not given here; UniProt Q9BYF1 79-85, looked up, fragment) |  | 0.0776 | TI26 > TQ26 > TQ19 > TL7 > TI7 | TI26 > TQ26 > TQ19 > TL7 > TI7 | 0.0319 | 0.0249 | 0.0096
TQ19: fluorescently tagged (5-TAMRA) peptide probe, presumably of QQ19 (QAKTFLDKFNHEAEDLFYQ; also: 5-TAMRA label, site not given here; UniProt Q9BYF1 24-42, looked up, fragment) |  |  | TI26 > TQ26 > TQ19 > TL7 > TI7 | TI26 > TQ26 > TQ19 > TL7 > TI7 |  |  | 
